From patent US10532082B2, “SOCS1-derived peptide for use in chronic complications of diabetes” (Fundació Hospital Universitari Vall d'Hebron-Institut de …, priority 2014, dated 2020)
Where no end group is shown, it is not given here. [ ]: non-standard residue; d: D form. lysine‑palmitate = lysine-palmitate bound at the N-terminal end; pY = N[C@@H](Cc1ccc(OP(=O)(O)O)cc1)C(=O)O

Tested on: diabetic mice (db/db)
Assay: Glial activation by GFAP immunofluorescence in retina, topical eye drops
Format: in vivo
Protocol: 8-week old diabetic mice (db/db) received the miS1 peptide in the form of eye drops (5 μL drops in each eye; 10 mg/mL; twice a day for 15 days; n=7 mice). Diabetic mice treated with the non-functional peptide Mut (n=7), treated with vehicle and non-diabetic mice (db/+) were used as controls. The eye drops were directly administered on the upper surface of the cornea of each eye using a micropipette. The weight and glycemia (colorimetric assay) were controlled throughout the study period. On day 15, the drop with the miS1 peptide or vehicle was administered about two hours before autopsy. […]
Glial activation was evaluated by means of GFAP (Glial fibrillar acidic protein) immunofluorescence following the methodology described in other studies (Bogdanov et al. PLoS One. 2014; 9:e97302). […] The images of diabetic and control samples were taken with identical parameters and the topographic distribution of the GFAP labelling was analyzed in a scale of 0 to 5 (Anderson et al. Clin Ophthalmol 2008; 2(4):801-16). […] Apoptosis was determined by means of TUNEL (Terminal Transferase dUTP Nick-EndLabeling; fluorescence kit) immunohistochemistry using the previously described method (Bogdanov et al. PLoS One. 2014; 9:e97302) and subsequent quantification under a fluorescence microscope. […]

“miS1: SEQ ID NO 1 DTHFRTFRSHSDYRRI, kinase inhibitory region of murine SOCS1, bound to lysine-palmitate at the N-terminal end, tyrosine phosphorylated ({lysine‑palmitate}-DTHFRTFRSHSD[pY]RRI)” was tested, and the GFAP score (eye drops 50 μg in 5 μL/eye twice a day, 15 days, scale 0 to 5) was 3 and the “reduction of GFAP glial protein staining” value (eye drops 15 days, compared with groups that received Mut peptide or vehicle) was “about 80%”.
